Results as given in patent publication US11365215B2, “Method for preventing, improving, or treating inflammatory bowel disease” (Research & Business Foundation Sungkyunkwan University, priority 2015, dated 2022).
“Also recorded” adds a separate entry of the source. Like-named read-outs stand apart in the source and are kept apart here. Peptide text beside a SMILES is read from it.

How the values were obtained:
[1] = test system: chemokines (CCL20, CCL2 and CX3CL1); test: Chemokine expression in large intestine tissues of DSS chronic colitis mice (Real-Time PCR); assay type: in vivo; settings: oral 100 mg/kg daily for 10 days, sulfasalazine 500 mg/kg as comparison
Description: Meanwhile, as shown in FIGS. 11B-11D, mice suffering from chronic colitis induced by DSS were orally administered sulfasalazine in an amount of 500 mg/kg and compound 1.1 (SEQ ID NO: 2) in an amount of 100 mg/kg daily for 10 days. After 10 days of administration, large intestine tissues were obtained from the mice, and expression of chemokines (CCL20, CCL2 and CX3CL1) in the tissues was measured using real-time polymerase chain reaction (Real-Time PCR) as described above.

[2] = Tissue distribution after oral administration; assay type: in vivo; settings: rat, oral 10 mg/kg
Description: Compound 1.1 (SEQ ID NO: 2) was orally administered to a rat at dose of 10 mg/kg, and after 2 hours and 8 hours, concentrations of compound 1.1 (SEQ ID NO: 2) were measured in the small intestinal tissue, large intestinal tissue, appendix tissue, retrimentum in small intestine and retrimentum in large intestine.

[3] = test system: ARPE-19 cells (Nox-4, VEGF, VEGFR1, VEGFR2, Ang1, Ang2, Tie-2, EPO, EPOR); test: Western blot of angiogenesis related factors in high-glucose ARPE-19 cells; assay type: cell-based, human; settings: 30 mM glucose 48 hours, 10 nM and 50 nM
Description: ARPE-19 cells were treated with 5.5 mM of glucose as reference control. For experiment group, the ARPE-19 cells were treated with 30 mM of glucose for 48 hours to induce high blood glucose condition, and simultaneously treated with DMSO, compound 1.1 (SEQ ID NO: 2) (10 nM), and compound 1.1 (SEQ ID NO: 2) (50 nM). Changes in expression of Nox-4, VEGF, VEGFR1, VEGFR2, Ang1, Ang2, Tie-2, EPO, and EPOR proteins were measured by Western blot analysis.

[4] = test system: STZ-induced diabetic retinopathy; test: Active oxygen in retina of STZ-induced diabetic retinopathy model; assay type: in vivo; settings: mice; 0.2 μg into one eye, three times; vs non-treated DR sample
Description: Streptozotocin (STZ) was administered at dose of 50 mg/kg to mice daily for 5 days, and a mouse model having induced diabetic retinopathy was obtained. The experimental group of the mouse model was injected with compound 1.1 (SEQ ID NO: 2), in an amount of 0.2 μg into one eye of the mouse, from the 20th day to 24th days from the administration, three times with two days of interval. After 50 days of administration, a DR sample that was not treated with compound 1.1 (SEQ ID NO: 2) and a DR sample treated with compound 1.1 (SEQ ID NO: 2) were collected.
The collected retina tissues from each mouse group as described above were stained with 5 μM of dihydroethidium and active oxygen rates from each group were measured (FIG. 27B). […] Accordingly, compound 1.1 (SEQ ID NO: 2) of the present invention is effectively used for preventing, alleviating or treating ophthalmic indications such as diabetic retinopathy from the biological experiments using mice.

[5] = test system: experimental autoimmune encephalomyelitis; test: MOG-induced experimental autoimmune encephalomyelitis model; assay type: in vivo; settings: EAE mice
Description: To confirm the effect of compound 1.1 (SEQ ID NO: 2) on multiple sclerosis, mice (10 weeks old, female) were sensitized with MOG35-55/[…] and PTX and an experimental autoimmune encephalomyelitis mouse model was obtained. Experimental methods were described in Oncotarget, Vol. 7 (2016), No. 13, 15382-15393, which is incorporated herein by reference.
As reference group, 10000 unit of Interferon-beta was hypodermically injected for 25 days, once every other day. Clinical score were measured and presented.

septicemia (CLP model) = test: Cecal ligation and puncture (CLP) septicemia model; assay type: in vivo; settings: CLP mice; hypodermic 1 mg/kg, 2 hours after CLP, 12 hour intervals, three times
Description: To confirm the effects of compound 1.1 (SEQ ID NO: 2) on septicemia, 10 mice in each group (7-week old, male) were anesthetized, and thereafter, the appendicies were exposed by incision of abdomen. The lower portion of ileocecal valve of the exposed appendix was tied and a single hole was made by using a 22 gage syringe needle. The treated appendix was reinserted into the abdominal cavity, and grafted using thread to obtain a septicemia-induced mice model (cecal ligation and pucture model, CLP model). Experimental methods were described in EMBO Mol Med. (2015) Mar. 12; 7(5):577-92, which is incorporated herein by reference.
Compound 1.1 (SEQ ID NO: 2) was hypodermically injected to the treated mice at dose of 1 mg/kg, after 2 hours from the CLP procedure, with 12 hour intervals, three times. As reference control, smaducin-6 was hypodermically injected at dose of 12 mg/kg as same method used for compound 1.1 (SEQ ID NO: 2). Survival rates of the mice from each group were measured (FIG. 29). Sham comparative group was not treated after incision of abdomen and anastomosis, CLP+PBS comparative group was treated with phosphate buffered saline (PBS) instead of drug compound after cecal ligation and puncture model was prepared. […]

**Q.** Which “expression of chemokines (CCL20, CCL2 and CX3CL1) in large intestine tissues” value [1] does the source give for `CCCCCCCCCCCCCCCC(=O)N1CCC[C@H]1C(=O)N1CCC[C@H]1C(=O)NCC(=O)N[C@@H](Cc1ccc(O)cc1)C(=O)O` [compound 1.1, (S)-3-(4-hydroxyphenyl)-2-(2-((S)-1-((S)-1-palmitoylpyrrolidine-2-carbonyl)pyrrolidine-2-carboxamido)acetamido)propanoic acid] (HELM PEPTIDE1{[CCCCCCCCCCCCCCCC(=O)[*:2]].P.P.G.Y}$$$$V2.0) here?
**A.** effective chemokine blockers

**Q.** What about the concentration at 2 h ([2]; appendix tissue, 2 hours, read-out: Concentration in appendix tissue) of the same molecule?
**A.** 22.7 ± 2.56 ng/mL

**Q.** What about the concentration at 8 h ([2]; appendix tissue, read-out: Concentration in appendix tissue) of the same molecule?
**A.** 48.2 ± 46 ng/mL

**Q.** And the concentration at 2 h ([2]; large intestinal tissue, 2 hours, read-out: Concentration in large intestinal tissue)?
**A.** 30 ± 10 ng/mL

**Q.** And the concentration at 8 h ([2]; large intestinal tissue, read-out: Concentration in large intestinal tissue)?
**A.** 33.2 ± 28.8 ng/mL

**Q.** And the “Concentration in small intestinal tissue” value ([2]; 2 hours)?
**A.** 75 ± 70.2 ng/mL

**Q.** What about the concentration at 8 h ([2]; retrimentum in large intestine, read-out: Concentration in retrimentum in large intestine) of the same molecule?
**A.** 1280 ± 52.7 ng/mL

**Q.** And the concentration at 2 h ([2]; retrimentum in small intestine, 2 hours, read-out: Concentration in retrimentum in small intestine)?
**A.** 1120 ± 217 ng/mL

**Q.** What about the concentration at 8 h ([2]; retrimentum in small intestine, read-out: Concentration in retrimentum in small intestine) of the same molecule?
**A.** 876 ± 900 ng/mL

**Q.** And the concentration at 8 h ([2]; small intestinal tissue, read-out: Concentration in small intestinal tissue)?
**A.** 78.1 ± 59.9 ng/mL

**Q.** What about the “expression of Ang1 and Tie-2” value [3] of the same molecule?
**A.** increased according to increased concentration

**Q.** And the “expression of Nox4, VEGF, VEGFR1,2, Ang2, EPO and EPOR” value [3]?
**A.** reduced

**Q.** And the “active oxygen rate in retina tissues (dihydroethidium)” value [4]?
**A.** reduced active oxygen rate

**Q.** And the “changes in body weights” value ([5]; compared to the EAE disease model group)?
**A.** did not have reduced weight

**Q.** And the “clinical score / treatment effect” value ([5]; hypodermic 1 mg/kg and 40 mg/kg every other day for 25 days, vs interferon-beta 10000 unit)?
**A.** effective in the treatment for multiple sclerosis; also recorded: the same or greater treatment effect and safety

**Q.** What about the survival rate (septicemia (CLP model)) of the same molecule?
**A.** 60%
